Patent publication US20240254547A1, “HIGHLY ACCURATE […]” (KAO CORPORATION, priority 2018, published 2024)

Tests used:
[1] = test system: TA100 strain of Salmonella typhimurium (S. typhimurium) LT-2; test: Ames test (pre-incubation method), number of revertant colonies; assay type: cell-based; conditions: for Number of revertant colonies in Ames test, Mean: mean of three plates
Procedure: Exposure of cells to ENU was performed in accordance with the pre-incubation method of the Ames test (K. Mortelmans et al. Mutat. Res.—Fundam. Mol. Mech. Mutagen. 455:29-60, 2000). TA100 strain was seeded in 2 mL of Nutrient Broth No. 2 (produced by Oxoid Limited), and subjected to shaking culture at 37° C. and 180 rpm for 4 hours to afford pre-culture solution with an O.D.660 value of 1.0 or higher. ENU (produced by Sigma-Aldrich Co. LLC.) was diluted with dimethylsulfoxide (DMSO; produced by Wako Pure Chemical Industries, Ltd.). Into test tubes, 100 μL of the ENU solution, 500 μL of 0.1 M phosphate buffer, and 100 μL of the pre-culture solution were added (amount of ENU: 62.5, 125, 250, 500, and 1,000 μg/tube), and the resultants were subjected to shaking culture at 100 rpm in a water bath at 37° C. for 20 minutes (ENU group). For a control group, 100 μL of solvent (DMSO) was added instead of the ENU solution. After shaking culture for 20 minutes, the test tubes each containing a culture solution were taken out of the water bath, and 50 μL of each culture solution was added to 2 mL of Nutrient Broth solution aliquoted in advance, and the resultant was further cultured in an incubator at 37° C. and 180 rpm for 14 hours, from which the bacterial suspensions were then collected and centrifuged at 7,500 rpm for 5 minutes, and the supernatants were removed to collect the bacterial cells.
For the Ames test, a bacterial suspension exposed to ENU by using the pre-incubation method was produced under the above-described conditions, and 2 mL of top agar (containing 1% NaCl, 1% agar, 0.05 mM histidine, and 0.05 mM biotine) warmed to 45° C. was added thereto and the resultant was suspended by using a Vortex, and poured onto a minimal glucose agar medium (Tesmedia® AN; produced by Oriental Yeast Co., Ltd.) to form a layer. The resulting plate was subjected to culturing at 37° C. for 48 hours, and the number of colonies observed was counted.

[2] = test system: genomic DNA from the bone marrow of TG mouse; test: Mutation analysis of mouse bone marrow genomic DNA by sequencing with information on complementary strands; assay type: in vivo, mouse (C57BL/6JJmsSlc-Tg (gpt delta)); conditions: ENU 150 mg/kg/day intraperitoneally for 5 days, n=2
Procedure: Male TG mice which were 7 to 9 weeks old at initiation of administration were used. ENU (produced by Toronto Research Chemicals, Inc.) was dissolved in saline to a concentration of 15.0 mg/mL. By using a plastic syringe and a 25 G injection needle, […] was intraperitoneally administered to the mice once per day (ENU 150 mg/kg/day) for 5 days (ENU group). Saline was administered to a control group. Seven days after the final administration, the animals were each euthanized to resect the femur, and genomic DNA was extracted from the bone marrow by using a REcoverEase DNA Isolation Kit (produced by Agilent Technologies) in accordance with the recommended protocol. The double-stranded DNA concentration of the resulting DNA was measured by using a Qubit3.0 Fluorometer (produced by Thermo Fisher Scientific) with a Qubit™ dsDNA BR Assay Kit attached thereto. […]
Each of the libraries prepared in 3) was subjected to sequencing by using a HiSeq 2500 (produced by Illumina, Inc.), where the read length was set to 2*100 bp. […]
Edit of raw read sequences acquired through sequencing, extraction of information on complementary strands, and mutation analysis were performed by using the procedure of 5) in Example 2 in accordance with the analysis flow illustrated above in Schematic Diagrams 3 and 4. […]

CCN(N=O)C(N)=O [ENU, ethylnitrosourea]
Number of revertant colonies after exposure to ENU versus DMSO control ([1]; 62.5 to 1,000 μg/plate): increase | Number of revertant colonies in Ames test, Mean ([1]; ENU 62.5 μg/plate): 207.3 | Number of revertant colonies in Ames test ([1]; ENU 62.5 μg/plate, plate 1): 220 | Number of revertant colonies in Ames test ([1]; ENU 62.5 μg/plate, plate 2): 192 | Number of revertant colonies in Ames test ([1]; ENU 62.5 μg/plate, plate 3): 210 | Number of revertant colonies in Ames test, Mean ([1]; ENU 125 μg/plate): 381.3 | Number of revertant colonies in Ames test ([1]; ENU 125 μg/plate, plate 1): 430 | Number of revertant colonies in Ames test ([1]; ENU 125 μg/plate, plate 2): 391 | Number of revertant colonies in Ames test ([1]; ENU 125 μg/plate, plate 3): 323 | Number of revertant colonies in Ames test, Mean ([1]; ENU 250 μg/plate): 1389.0 | Number of revertant colonies in Ames test ([1]; ENU 250 μg/plate, plate 1): 1482 | Number of revertant colonies in Ames test ([1]; ENU 250 μg/plate, plate 2): 1359 | Number of revertant colonies in Ames test ([1]; ENU 250 μg/plate, plate 3): 1326 | Number of revertant colonies in Ames test, Mean ([1]; ENU 500 μg/plate): 3960.7 | Number of revertant colonies in Ames test ([1]; ENU 500 μg/plate, plate 1): 4095 | Number of revertant colonies in Ames test ([1]; ENU 500 μg/plate, plate 2): 4006 | Number of revertant colonies in Ames test ([1]; ENU 500 μg/plate, plate 3): 3751 | Number of revertant colonies in Ames test, Mean ([1]; ENU 1000 μg/plate): 2534.0 | Number of revertant colonies in Ames test ([1]; ENU 1000 μg/plate, plate 1): 1659 | Number of revertant colonies in Ames test ([1]; ENU 1000 μg/plate, plate 2): 3206 | Number of revertant colonies in Ames test ([1]; ENU 1000 μg/plate, plate 3): 2737 | Frequencies of A:T>T:A, A:T>G:C, and G:C>A:T versus control group [2]: significantly higher
